Measurements reported in patent US10072001B2, “Tank-binding kinase inhibitor compounds” (Gilead Sciences, Inc., priority 2014, dated 2018).
pIC50: −log10 of the molar value.

Experiments:
IKKε = IKKε (Homo sapiens (Human), UniProt Q14164); assay: TR-FRET kinase assay, IKKε; type: biochemical; settings: full length recombinant IKKε 0.3 nM, 2x Km ATP, 1 μM peptide, 240 min at 25° C.; geometric mean of minimum four determinations
Source text: Biological Assay for TBK1 and IKKs:

TBK1 = TBK1 (Homo sapiens (Human), UniProt Q9UHD2); assay: TR-FRET kinase assay, TBK1; settings: read-out: TBK1-IC50; full length recombinant TBK1 2.5 nM, 2x Km ATP, 1 μM peptide, 240 min at 25° C.; geometric mean of minimum four determinations
Sequence of TBK1 (Q9UHD2 whole entry): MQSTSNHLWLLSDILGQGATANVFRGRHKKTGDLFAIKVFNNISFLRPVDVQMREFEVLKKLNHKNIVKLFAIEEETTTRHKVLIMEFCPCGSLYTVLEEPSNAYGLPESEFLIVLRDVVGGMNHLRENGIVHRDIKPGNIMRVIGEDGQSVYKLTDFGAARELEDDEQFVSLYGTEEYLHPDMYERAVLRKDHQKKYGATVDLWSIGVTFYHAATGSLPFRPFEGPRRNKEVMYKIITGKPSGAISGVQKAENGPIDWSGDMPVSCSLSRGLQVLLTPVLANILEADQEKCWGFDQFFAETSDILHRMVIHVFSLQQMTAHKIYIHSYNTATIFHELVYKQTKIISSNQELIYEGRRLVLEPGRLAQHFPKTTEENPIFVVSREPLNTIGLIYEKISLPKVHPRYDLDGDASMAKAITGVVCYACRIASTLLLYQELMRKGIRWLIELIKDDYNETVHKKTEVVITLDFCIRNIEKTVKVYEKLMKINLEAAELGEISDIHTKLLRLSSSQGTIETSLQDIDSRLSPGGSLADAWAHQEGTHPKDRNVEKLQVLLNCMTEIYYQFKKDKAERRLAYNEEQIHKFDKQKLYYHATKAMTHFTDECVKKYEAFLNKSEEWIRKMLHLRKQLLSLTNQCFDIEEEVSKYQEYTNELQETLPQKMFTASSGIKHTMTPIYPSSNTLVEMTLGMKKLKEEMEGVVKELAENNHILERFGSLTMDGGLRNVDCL

Sequence of IKKε (Q14164 whole entry): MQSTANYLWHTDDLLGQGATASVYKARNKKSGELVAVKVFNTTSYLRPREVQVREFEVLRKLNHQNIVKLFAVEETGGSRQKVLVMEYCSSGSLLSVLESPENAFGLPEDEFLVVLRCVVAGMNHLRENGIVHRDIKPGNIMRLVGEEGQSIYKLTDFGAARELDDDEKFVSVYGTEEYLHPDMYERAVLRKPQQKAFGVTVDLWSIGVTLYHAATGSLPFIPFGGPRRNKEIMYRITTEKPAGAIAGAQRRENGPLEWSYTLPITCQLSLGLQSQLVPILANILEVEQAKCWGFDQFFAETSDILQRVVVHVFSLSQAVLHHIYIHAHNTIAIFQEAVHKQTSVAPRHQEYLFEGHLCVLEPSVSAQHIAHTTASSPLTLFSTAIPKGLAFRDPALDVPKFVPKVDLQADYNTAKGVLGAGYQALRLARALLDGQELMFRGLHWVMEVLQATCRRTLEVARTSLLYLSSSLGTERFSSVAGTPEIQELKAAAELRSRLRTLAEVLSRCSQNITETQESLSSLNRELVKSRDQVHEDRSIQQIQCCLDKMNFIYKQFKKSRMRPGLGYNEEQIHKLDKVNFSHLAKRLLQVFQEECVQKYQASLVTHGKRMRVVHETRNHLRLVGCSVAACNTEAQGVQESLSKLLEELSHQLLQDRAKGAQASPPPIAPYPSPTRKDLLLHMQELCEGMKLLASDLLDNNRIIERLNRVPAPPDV

Compound: N#Cc1cc(-c2ccnc3[nH]c(-c4cnn(C5CCOCC5)c4)cc23)ccc1OC1CCOCC1 [Example 51, 5-(2-(1-(tetrahydro-2H-pyran-4-yl)-1H-pyrazol-4-yl)-1H-pyrrolo[2,3-b]pyridin-4-yl)-2-((tetrahydro-2H-pyran-4-yl)oxy)benzonitrile]
- pIC50 (IKKε): 8.53
- pIC50 (TBK1): 8.45

Compound: 4-(2-cyano-4-(2-(4-(4-(2,2-difluoroethyl)piperazin-1-yl)phenyl)-3H-imidazo[4,5-b]pyridin-7-yl)phenoxy)piperidine-1-sulfonamide [Example 263]
- pIC50 (IKKε): 8.20
- pIC50 (TBK1): 8.51

Compound: N#Cc1cc(-c2ccnc3[nH]c(-c4cccc(N5CCOCC5)c4)nc23)ccc1OC1CCOCC1 [Example 308, 5-(2-(3-morpholinophenyl)-3H-imidazo[4,5-b]pyridin-7-yl)-2-((tetrahydro-2H-pyran-4-yl)oxy)benzonitrile]
- pIC50 (IKKε): 7.74
- pIC50 (TBK1): 7.60

Compound: N#Cc1cc(-c2ccnc3[nH]c(-c4ccc(N5CCOCC5)cc4)cc23)ccc1O[C@@H]1CCN(C(=O)CO)C1 [Example 15, (R)-2-((1-(2-hydroxyacetyl)pyrrolidin-3-yl)oxy)-5-(2-(4-morpholinophenyl)-1H-pyrrolo[2,3-b]pyridin-4-yl)benzonitrile]
- pIC50 (IKKε): 8.61
- pIC50 (TBK1): 8.87

Compound: N#Cc1cc(-c2ccnc3[nH]c(-c4ccc(C(=O)C(F)(F)F)cc4)cc23)ccc1OC1CCOCC1 [Example 237, 2-((tetrahydro-2H-pyran-4-yl)oxy)-5-(2-(4-(2,2,2-trifluoroacetyl)phenyl)-1H-pyrrolo[2,3-b]pyridin-4-yl)benzonitrile]
- pIC50 (IKKε): 7.53
- pIC50 (TBK1): 7.94

Compound: CC(O)C(=O)N1CC[C@@H](Oc2ccc(-c3ccnc4[nH]c(-c5ccc(N6CCOCC6)cc5)cc34)cc2C#N)C1 (stereo partly drawn) [Example 27, 2-(((3R)-1-(2-hydroxypropanoyl)pyrrolidin-3-yl)oxy)-5-(2-(4-morpholinophenyl)-1H-pyrrolo[2,3-b]pyridin-4-yl)benzonitrile]
- pIC50 (IKKε): 7.87
- pIC50 (TBK1): 8.18

Compound: N#Cc1cc(-c2ncnc3[nH]c(-c4ccc(CC(=O)O)cc4)cc23)ccc1OC1CCOCC1 [Example 168, 2-(4-(4-(3-Cyano-4-((tetrahydro-2H-pyran-4-yl)oxy)phenyl)-7H-pyrrolo[2,3-d]pyrimidin-6-yl)phenyl)acetic acid]
- pIC50 (IKKε): 7.81
- pIC50 (TBK1): 7.86

Compound: N#Cc1cc(-c2ccnc3[nH]c(C4=CC5CCC4C5)cc23)ccc1OC1CCOCC1 (stereo not drawn) [Example 43, 5-(2-(bicyclo[2.2.1]hept-2-en-2-yl)-1H-pyrrolo[2,3-b]pyridin-4-yl)-2-((tetrahydro-2H-pyran-4-yl)oxy)benzonitrile]
- pIC50 (IKKε): < 6.00
- pIC50 (TBK1): 6.36

Compound: CC1(COc2ccc(-c3ccnc4[nH]c(-c5ccc(N6CCOCC6)cc5)cc34)cc2C#N)COC1 [Example 12, 2-((3-methyloxetan-3-yl)methoxy)-5-(2-(4-morpholinophenyl)-1H-pyrrolo[2,3-b]pyridin-4-yl)benzonitrile]
- pIC50 (IKKε): 7.39
- pIC50 (TBK1): 7.85

Compound: N#Cc1cc(-c2ncnc3[nH]c(-c4ccc(N5CCOCC5)c(F)c4)nc23)ccc1OC1CCNCC1 [Example 244, 5-(8-(3-fluoro-4-morpholinophenyl)-9H-purin-6-yl)-2-(piperidin-4-yloxy)benzonitrile]
- pIC50 (IKKε): 6.82
- pIC50 (TBK1): 7.45

Compound: N#Cc1cc(-c2ncnc3[nH]c(-c4ccc(C(=O)N5CCOCC5)cc4)cc23)ccc1OC1CCN(C(=O)CO)CC1 [Example 160, 2-((1-(2-Hydroxyacetyl)piperidin-4-yl)oxy)-5-(6-(4-(morpholine-4-carbonyl)phenyl)-7H-pyrrolo[2,3-d]pyrimidin-4-yl)benzonitrile]
- pIC50 (IKKε): 8.63
- pIC50 (TBK1): 8.88

Compound: N#Cc1cc(-c2ccnc3[nH]c(-c4ccc(N5CCOCC5)cc4)nc23)ccc1OC1CCOCC1 [Example 305, 5-(2-(4-morpholinophenyl)-3H-imidazo[4,5-b]pyridin-7-yl)-2-((tetrahydro-2H-pyran-4-yl)oxy)benzonitrile]
- pIC50 (IKKε): 7.97
- pIC50 (TBK1): 8.49
